Our source for the EC50 values is patent publication US20110136801A1, “Novel Compounds” (Dainippon Sumitomo Pharma Co. Ltd., priority 2009, published 2011).

The experiment deals with T1, human TLR7 (Homo sapiens, UniProt Q9NYK1).
T1 construct: expressed in transfected cells; host or cells: HEK293 cell line stably expressing the pNiFty2-SEAP reporter plasmid; TLR7 in pUNO vector, blasticidin selection
T1 sequence (Q9NYK1 27-1049): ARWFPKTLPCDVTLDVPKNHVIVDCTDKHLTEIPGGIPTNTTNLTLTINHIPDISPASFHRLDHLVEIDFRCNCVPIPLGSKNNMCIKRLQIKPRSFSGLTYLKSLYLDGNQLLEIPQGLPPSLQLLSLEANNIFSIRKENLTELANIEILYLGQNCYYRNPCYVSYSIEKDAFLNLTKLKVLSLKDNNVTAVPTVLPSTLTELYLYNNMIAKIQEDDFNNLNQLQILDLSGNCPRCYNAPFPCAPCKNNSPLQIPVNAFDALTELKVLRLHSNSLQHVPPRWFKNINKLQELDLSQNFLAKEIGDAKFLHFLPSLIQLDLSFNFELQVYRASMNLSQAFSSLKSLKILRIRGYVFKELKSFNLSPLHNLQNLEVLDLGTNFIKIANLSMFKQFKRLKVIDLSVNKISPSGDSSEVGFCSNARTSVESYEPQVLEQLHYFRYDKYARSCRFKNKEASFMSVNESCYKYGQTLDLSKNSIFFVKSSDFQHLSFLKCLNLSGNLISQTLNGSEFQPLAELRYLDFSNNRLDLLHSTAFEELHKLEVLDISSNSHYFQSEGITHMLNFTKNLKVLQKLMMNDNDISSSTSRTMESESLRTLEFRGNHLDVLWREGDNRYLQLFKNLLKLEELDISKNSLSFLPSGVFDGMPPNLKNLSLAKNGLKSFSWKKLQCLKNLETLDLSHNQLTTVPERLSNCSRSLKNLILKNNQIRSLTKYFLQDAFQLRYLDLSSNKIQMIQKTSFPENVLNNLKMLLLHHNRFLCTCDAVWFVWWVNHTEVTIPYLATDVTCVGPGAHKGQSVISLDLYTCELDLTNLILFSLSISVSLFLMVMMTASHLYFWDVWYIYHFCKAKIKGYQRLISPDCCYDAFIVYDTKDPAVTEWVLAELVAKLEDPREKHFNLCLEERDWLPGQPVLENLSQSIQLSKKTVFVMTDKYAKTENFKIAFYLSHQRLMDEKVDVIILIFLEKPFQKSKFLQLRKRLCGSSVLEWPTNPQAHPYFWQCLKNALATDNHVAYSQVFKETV
In words: Human TLR7 Assay (SEAP reporter in HEK293 cells).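 Note: Read-out is secreted alkaline phosphatase made under an NFkB/ELAM-1 composite promoter, reporting TLR7-triggered NFkB activation.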 The conditions noted are these: HEK293 cell line expressing human TLR7 and pNiFty2-SEAP reporter, overnight incubation at 37° C., 0.1% DMSO; read-out: hTLR7 EC50. It is filed as cell-based.
In the case of `CCN(CC)CC(=O)N(CCCn1c(CCOC)nc2c(N)nc3ccccc3c21)Cc1ccccc1OCC(=O)OC` [Example 40, Methyl 2-{2-[(N-{3-[4-amino-2-(2-methoxyethyl)-1H-imidazo[4,5-c]quinolin-1-yl]propyl}-2-(diethylamino)acetamido)methyl]phenoxy}acetate], the 50% effective concentration (EC50) (as a rule, the concentration that produces a half-maximal response) is 243 nM.

In the case of `CCOC(=O)COc1ccccc1CN(CCCn1c(CCOC)nc2c(N)nc3ccccc3c21)C(=O)CN(CC)CC` [Example 41, Ethyl 2-{2-[(N-{3-[4-amino-2-(2-methoxyethyl)-1H-imidazo[4,5-c]quinolin-1-yl]propyl}-2-(diethylamino)acetamido)methyl]phenoxy}acetate], the EC50 amounted to 137 nM.

Take `CCOC(=O)COc1cccc(CN(CCCCn2c(CCOC)nc3c(N)nc4ccccc4c32)C(=O)CN(CC)CC)c1` [Example 44, Ethyl 2-{3-[(N-{4-[4-amino-2-(2-methoxyethyl)-1H-imidazo[4,5-c]quinolin-1-yl]butyl}-2-(diethylamino)acetamido)methyl]phenoxy}acetate]: the EC50 was found to be 22.7 nM.

For `CCN(CC)CC(=O)N(CCCCn1c(CCOC)nc2c(N)nc3ccccc3c21)Cc1cccc(OCC(=O)OC(C)(C)C)c1` [Example 48, tert-Butyl 2-{3-[(N-{4-[4-amino-2-(2-methoxyethyl)-1H-imidazo[4,5-c]quinolin-1-yl]butyl}-2-{diethylamino}acetamido)methyl]phenoxy}acetate], the EC50 stood at 24.7 nM.

Turning to `CCN(CC)CC(=O)N(CCCn1c(CCOC)nc2c(N)nc3ccccc3c21)Cc1cccc(OC(C)C(=O)OC)c1` (stereo not shown) [Example 51, Methyl 2-{3-[(N-{3-[4-amino-2-(2-methoxyethyl)-1H-imidazo[4,5-c]quinolin-1-yl]propyl}-2-{diethylamino}acetamido)methyl]phenoxy}propanoate], the EC50 was determined as 42.6 nM.

On to `CCOC(=O)C(C)Oc1cccc(CN(CCCn2c(CCOC)nc3c(N)nc4ccccc4c32)C(=O)CN(CC)CC)c1` (stereo not shown) [Example 52, Ethyl 2-{3-[(N-{3-[4-amino-2-(2-methoxyethyl)-1H-imidazo[4,5-c]quinolin-1-yl]propyl}-2-{diethylamino}acetamido)methyl]phenoxy}propanoate], for which the 50% effective concentration (EC50) was 24.2 nM.

For `CCOC(=O)C(C)(C)Oc1cccc(CN(CCCn2c(CCOC)nc3c(N)nc4ccccc4c32)C(=O)CN(CC)CC)c1` [Example 55, Ethyl 2-{3-[(N-{3-[4-amino-2-(2-methoxyethyl)-1H-imidazo[4,5-c]quinolin-1-yl]propyl}-2-{diethylamino}acetamido)methyl]phenoxy}-2-methylpropanoate], the EC50 stood at 46.4 nM.

Regarding `CCOC(=O)C1(Oc2cccc(CN(CCCn3c(CCOC)nc4c(N)nc5ccccc5c43)C(=O)CN(CC)CC)c2)CCC1` [Example 59, Ethyl 1-{3-[(N-{3-[4-amino-2-(2-methoxyethyl)-1H-imidazo[4,5-c]quinolin-1-yl]propyl}-2-{diethylamino}acetamido)methyl]phenoxy}cyclobutanecarboxylate], the half-maximal effective concentration (EC50) came out at 69 nM.

As to `CCOC(=O)COc1cc(CN(CCCn2c(CCOC)nc3c(N)nc4ccccc4c32)C(=O)CN(CC)CC)ccc1OC` [Example 62, Ethyl 2-{5-[(N-{3-[4-amino-2-(2-methoxyethyl)-1H-imidazo[4,5-c]quinolin-1-yl]propyl}-2-{diethylamino}acetamido)methyl]-2-methoxyphenoxy}acetate], the 50% effective concentration (EC50) amounted to 84.2 nM.

For the molecule `CCN(CC)CC(=O)N(CCCn1c(CCOC)nc2c(N)nc3ccccc3c21)Cc1ccc(OC)c(OCC(=O)OC)c1` [Example 63, Methyl 2-{5-[(N-{3-[4-amino-2-(2-methoxyethyl)-1H-imidazo[4,5-c]quinolin-1-yl]propyl}-2-{diethylamino}acetamido)methyl]-2-methoxyphenoxy}acetate], the EC50 amounted to 212 nM.

On to `CCOC(=O)COc1cc(CN(CCCn2c(CCOC)nc3c(N)nc4ccccc4c32)C(=O)CN(CC)CC)ccc1C` [Example 66, Ethyl 2-{5-[(N-{3-[4-amino-2-(2-methoxyethyl)-1H-imidazo[4,5-c]quinolin-1-yl]propyl}-2-{diethylamino}acetamido)methyl]-2-methylphenoxy}acetate], for which the EC50 amounted to 27.3 nM.

As for `CCN(CC)CC(=O)N(CCCn1c(CCOC)nc2c(N)nc3ccccc3c21)Cc1ccc(C)c(OCC(=O)OC(C)C)c1` [Example 67, Isopropyl 2-{5-[(N-{3-[4-amino-2-(2-methoxyethyl)-1H-imidazo[4,5-c]quinolin-1-yl]propyl}-2-{diethylamino}acetamido)methyl]-2-methylphenoxy}acetate], the EC50 is 45.8 nM.

On to `CCC(Oc1cccc(CN(CCCn2c(CCOC)nc3c(N)nc4ccccc4c32)C(=O)CN(CC)CC)c1)C(=O)OC` (stereo not shown) [Example 70, Methyl 2-{3-[(N-{3-[4-amino-2-(2-methoxyethyl)-1H-imidazo[4,5-c]quinolin-1-yl]propyl}-2-{diethylamino}acetamido)methyl]phenoxy}butanoate], for which the half-maximal effective concentration (EC50) turned out to be 25.9 nM.

For `CCOC(=O)C(CC)Oc1cccc(CN(CCCn2c(CCOC)nc3c(N)nc4ccccc4c32)C(=O)CN(CC)CC)c1` (stereo not shown) [Example 71, Ethyl 2-{3-[(N-{3-[4-amino-2-(2-methoxyethyl)-1H-imidazo[4,5-c]quinolin-1-yl]propyl}-2-{diethylamino}acetamido)methyl]phenoxy}butanoate], the EC50 was found to be 23 nM.

For `CCN(CC)CC(=O)N(CCCn1c(CCOC)nc2c(N)nc3ccccc3c21)Cc1ccc(OC)c(OCC(=O)OC(C)C)c1` [Example 72, Isopropyl 2-{5-[(N-{3-[4-amino-2-(2-methoxyethyl)-1H-imidazo[4,5-c]quinolin-1-yl]propyl}-2-{diethylamino}acetamido)methyl]-2-methoylphenoxy}acetate], the EC50 amounted to 55.8 nM.

As for `COCCc1nc2c(N)nc3ccccc3c2n1CCCN(Cc1ccc(OC)c(OCC(=O)OC(C)C)c1)C(=O)CN(C)C` [Example 75, Isopropyl 2-{5-[(N-{3-[4-amino-2-(2-methoxyethyl)-1H-imidazo[4,5-c]quinolin-1-yl]propyl}-2-{dimethylamino}acetamido)methyl]-2-methoxyphenoxy}acetate], the EC50 was 405 nM.

`CCN(C)CC(=O)N(CCCn1c(CCOC)nc2c(N)nc3ccccc3c21)Cc1ccc(OC)c(OCC(=O)OC(C)C)c1` [Example 76, Isopropyl 2-{5-[(N-{3-[4-amino-2-(2-methoxyethyl)-1H-imidazo[4,5-c]quinolin-1-yl]propyl}-2-{ethyl(methyl)amino}acetamido)methyl]-2-methoxyphenoxy}acetate]: the EC50 turned out to be 211 nM.

Turning to `CCN(CC)CC(=O)N(CCCn1c(CCOC)nc2c(N)nc3ccccc3c21)Cc1cccc(OC2(C(=O)OC)CC2)c1` [Example 79, Methyl 1-{3-[(N-{3-[4-amino-2-(2-methoxyethyl)-1H-imidazo[4,5-c]quinolin-1-yl]propyl}-2-{diethylamino}acetamido)methyl]phenoxy}cyclopropanecarboxylate], the 50% effective concentration (EC50) was 51.8 nM.

As to `CCN(CC)CC(=O)N(CCCn1c(CCOC)nc2c(N)nc3ccccc3c21)Cc1cccc(OCC(=O)OC2CCC2)c1` [Example 81, Cyclobutyl 2-{3-[(N-{3-[4-amino-2-(2-methoxyethyl)-1H-imidazo[4,5-c]quinolin-1-yl]propyl}-2-{diethylamino}acetamido)methyl]phenoxy}acetate], the EC50 was 56.1 nM.
